Assays:
[1] = test system: pathogenic E. coli cells; assay: Real-time detection in microfluidic flow cell, impedance response; format: binding; conditions: flow rate 5 μL/min
Procedure: To simulate the use of the AMP microelectrodes in everyday applications, such as direct water sampling, the biosensor response tested to perform in real time, as shown in FIG. 8. First, a microfluidic cell was bonded to the interdigitated biosensor chip (FIG. 8A), such that the electrodes were perpendicular to the direction of the sample flow (FIG. 8B). Next, fluid was injected using a syringe pump connected to the inlet port, and allowed to flow through to the outlet port, at a flow rate of 100 μL/min. The flow cell was first flushed with buffer to establish a baseline. Various dilutions (10^4-10^7 CFU/mL) of pathogenic E. coli cells in PBS were then injected to the channel at a reduced flow rate of 5 μL/min for 30 min. […] Simultaneously, the impedance response was continuously monitored during the sample flow-through process (FIG. 8D). […] This difference between detection in flowing and static water sample has also been reported in fluorescent based assays. This difference is attributed to the opposing effects of shear and mixing on the binding kinetics.
Interdigitated capacitive electrodes were microfabricated on 4″ p-type silicon wafers (boron-doped, <100>, 10-16 Ω-cm, 550 μm thick). A 1 μm thick silicon dioxide layer was deposited on the wafer by plasma enhanced chemical vapor deposition (PECVD) to form electrical insulation between the Si substrate and the capacitive electrodes. S1813 photoresist was patterned using photolithography, followed by electron-beam evaporation of 10 nm Ti and 300 nm Au under high vacuum conditions. The titanium layer helps to provide adhesion of the Au to the SiO2. The IMA was then finally developed by lift-off patterning of the metallic layer in acetone with ultrasonic activation. […]
(§1) Dielectric property changes due to AMP-bacteria interactions were probed using a Fast-Fourier Transform (FFT) spectrum analyzer. […] For real-time measurements, the impedance vs. time data was recorded while buffer solutions or different dilutions of bacterial solutions flowed through the microfluidic channel. […]

[2] = test system: Listeria monocytogenes; assay: Selectivity of AMP-functionalized biosensor (impedance at 10 Hz, fluorescent microscopy), Gram-negative pathogens relative to Listeria; format: binding; conditions: all 10^7 CFU/mL
Procedure: (§2) As a next step, the selectivity of the AMP-functionalized biosensors toward various bacterial species was determined. Specifically, the binding behavior of AMPs was probed toward: 1) Gram-negative pathogenic E. coli O157:H7, 2) the non-pathogenic E. coli strain ATCC 35218, 3) Gram-negative pathogenic Salmonella typhimurium, and Listeria monocytogenes, a Gram-positive pathogen. Collectively, these studies elucidate the matrix of selectivity as it depends on Gram-negative vs. Gram-positive species, and pathogenic vs. non-pathogenic strains. […]
(§3) Stock solutions of propidium iodide (PI), nucleic acid stain (Molecular probes, Eugene, Oreg.) were made from solid form by dissolving PI (MW=668.4) in deionized water at 1 mg/mL (1.5 mM) and stored at 4° C., protected from light. […] The binding pattern of the different bacterial cells was imaged using a Zeiss axiovert inverted microscope and recorded with a Zeiss axiocam digital camera. Surface density of the bound bacterial cells was analyzed and plotted using imageJ software from NIH.
as §1

[3] = test system: Salmonella typhimurium; assay: Selectivity of AMP-functionalized biosensor, pathogenic E. coli relative to Salmonella; format: binding; conditions: 10^7 CFU/mL
Procedure: as §2, §3, §1

[4] = test system: E. coli O157:H7 cells; assay: Impedance spectroscopy of magainin-functionalized interdigitated microelectrode array, sensitivity measurements; format: binding; conditions: E. coli O157:H7 10^7 CFU/mL; response at 10 Hz
Procedure: FIG. 2 schematically outlines the sensing platform. AMPs are first immobilized on microfabricated interdigitated gold electrodes, anode 10 and cathode 12 (FIG. 2A). Magainin I was acquired with an additional cysteine residue at the C-terminus (FIG. 2B), allowing for facile and site specific covalent attachment to the gold electrodes. Next, heat-killed bacterial cells were injected and incubated with the AMP-modified electrodes. If the bacteria are recognized by the AMPs, binding will occur (FIG. 2C), leading to dielectric property changes which can be monitored via a spectrum analyzer. The impedance was measured over a frequency range of 10 Hz to 100 kHz.
Sensitivity of microbial detection is a key determinant for utility of the biosensor. To this end, the sensitivity of the magainin-functionalized microelectrode array in detecting bacterial cells was determined using impedance spectroscopy. […] A “blank” device with no immobilized AMPs was also tested for comparison. […] As the frequency increases, the contribution to the impedance from the bacterial cells decreases, leaving only the dielectric relaxation of small dipoles including water molecules in the buffer solution to affect the measured impedance. FIG. 3B depicts the impedance change at the fixed frequency of 10 Hz. […]

[5] = test system: E. coli O157:H7 bacterial cell; assay: Single bacterium detection on graphene sensors functionalized with antimicrobial peptide, simultaneous resistance and optical data; format: binding; conditions: compared to non-functionalized graphene
Excerpt: Simultaneous collection of electrical and fluorescence data from the graphene sensors in the presence of fluorescently labeled E. coli cells clearly indicate that the change in the resistance recorded corresponds to the binding and unbinding of the bacterial cell from the graphene surface. The resistance of the graphene sensor remains at the baseline value until the bacterial cell diffuses to the sensor surface and drops down by approximately 0.6 percentage of the original, once the bacterial cell binds to the graphene surface.
The resistance of the sensor decreases from the baseline value up on the binding of the negatively charged bacterial cell and returns back to the initial value up on unbinding, indicating a p-type behavior of the graphene transducer. […] In order to determine the effect of the immobilized AMPs on the binding/unbinding properties simultaneous resistance and optical data were recorded on graphene sensors functionalized with antimicrobial peptides. […]
Electrical measurements for the detection of single bacteria binding measurements were performed with a lock-in detection system using Stanford Research Systems 810 DSP lock-in amplifier. […] The resistance of the graphene sensor was monitored continuously in the presence of analyte sample of various dilutions of bacterial cells. […]

[6] = test system: Escherichia coli; conditions: cited from earlier work
[7] = test system: Staphylococcus aureus; conditions: cited from earlier work
[8] = test system: methicillin resistant strains of S. aureus; conditions: cited from earlier work
[9] = test system: Helicobacter pylori; conditions: cited from earlier work

Row | Substance | time to measurable response relative to the control sample, all samples ([1]; 10^4-10^7 CFU/mL in PBS) | time to saturation of responses ([1]; 10^4-10^7 CFU/mL in PBS) | time to response, highest concentration sample [1] | impedance difference, pathogenic Gram-negative E. coli and Salmonella relative to Gram-positive Listeria [2] | response for pathogenic E. coli relative to Salmonella [3] | response of the biosensor towards target cells with increasing concentration of immobilized magainin [4] | effect of immobilized peptide on unbinding of bacterial cells [5] | MIC [6] | MIC [7] | antimicrobial activity [8] | MIC [9]
1 | GIGKFLHSAGKFGKAFVGEIMKS [magainin I] | ≤ 5 min | ca. 20 min | ≤ 30 s | two | slightly larger response | increase monotonically | – | – | – | – | –
2 | Odorranin-HP [O-HP] | – | – | – | – | – | – | slows the unbinding kinetics | 30 µg/mL | 5 µg/mL | exert antimicrobial activity | 20 µg/mL

— US9029168B2, “Use and making of biosensors utilizing antimicrobial peptides for highly sensitive biological monitoring” (priority 2010, dated 2015)
